The results in this text go back to article doi:10.1101/2023.09.11.557162v4 (biorxiv, 2025).

The structures appear in SMILES notation. Read-outs that look alike come from different tables or passages of the source.

Assay in all cases: DNA-dependent ATPase assay
Holding throughout (assay type): biochemical

Assay [1] addresses SMARCA4 (Homo sapiens, UniProt P51532).
Assay [2] deals with SMARCA2 (Homo sapiens, UniProt P51531).
For assay [3], the target named is CHD4 (Homo sapiens, UniProt Q14839).
Sequence of CHD4 (Q14839 whole entry): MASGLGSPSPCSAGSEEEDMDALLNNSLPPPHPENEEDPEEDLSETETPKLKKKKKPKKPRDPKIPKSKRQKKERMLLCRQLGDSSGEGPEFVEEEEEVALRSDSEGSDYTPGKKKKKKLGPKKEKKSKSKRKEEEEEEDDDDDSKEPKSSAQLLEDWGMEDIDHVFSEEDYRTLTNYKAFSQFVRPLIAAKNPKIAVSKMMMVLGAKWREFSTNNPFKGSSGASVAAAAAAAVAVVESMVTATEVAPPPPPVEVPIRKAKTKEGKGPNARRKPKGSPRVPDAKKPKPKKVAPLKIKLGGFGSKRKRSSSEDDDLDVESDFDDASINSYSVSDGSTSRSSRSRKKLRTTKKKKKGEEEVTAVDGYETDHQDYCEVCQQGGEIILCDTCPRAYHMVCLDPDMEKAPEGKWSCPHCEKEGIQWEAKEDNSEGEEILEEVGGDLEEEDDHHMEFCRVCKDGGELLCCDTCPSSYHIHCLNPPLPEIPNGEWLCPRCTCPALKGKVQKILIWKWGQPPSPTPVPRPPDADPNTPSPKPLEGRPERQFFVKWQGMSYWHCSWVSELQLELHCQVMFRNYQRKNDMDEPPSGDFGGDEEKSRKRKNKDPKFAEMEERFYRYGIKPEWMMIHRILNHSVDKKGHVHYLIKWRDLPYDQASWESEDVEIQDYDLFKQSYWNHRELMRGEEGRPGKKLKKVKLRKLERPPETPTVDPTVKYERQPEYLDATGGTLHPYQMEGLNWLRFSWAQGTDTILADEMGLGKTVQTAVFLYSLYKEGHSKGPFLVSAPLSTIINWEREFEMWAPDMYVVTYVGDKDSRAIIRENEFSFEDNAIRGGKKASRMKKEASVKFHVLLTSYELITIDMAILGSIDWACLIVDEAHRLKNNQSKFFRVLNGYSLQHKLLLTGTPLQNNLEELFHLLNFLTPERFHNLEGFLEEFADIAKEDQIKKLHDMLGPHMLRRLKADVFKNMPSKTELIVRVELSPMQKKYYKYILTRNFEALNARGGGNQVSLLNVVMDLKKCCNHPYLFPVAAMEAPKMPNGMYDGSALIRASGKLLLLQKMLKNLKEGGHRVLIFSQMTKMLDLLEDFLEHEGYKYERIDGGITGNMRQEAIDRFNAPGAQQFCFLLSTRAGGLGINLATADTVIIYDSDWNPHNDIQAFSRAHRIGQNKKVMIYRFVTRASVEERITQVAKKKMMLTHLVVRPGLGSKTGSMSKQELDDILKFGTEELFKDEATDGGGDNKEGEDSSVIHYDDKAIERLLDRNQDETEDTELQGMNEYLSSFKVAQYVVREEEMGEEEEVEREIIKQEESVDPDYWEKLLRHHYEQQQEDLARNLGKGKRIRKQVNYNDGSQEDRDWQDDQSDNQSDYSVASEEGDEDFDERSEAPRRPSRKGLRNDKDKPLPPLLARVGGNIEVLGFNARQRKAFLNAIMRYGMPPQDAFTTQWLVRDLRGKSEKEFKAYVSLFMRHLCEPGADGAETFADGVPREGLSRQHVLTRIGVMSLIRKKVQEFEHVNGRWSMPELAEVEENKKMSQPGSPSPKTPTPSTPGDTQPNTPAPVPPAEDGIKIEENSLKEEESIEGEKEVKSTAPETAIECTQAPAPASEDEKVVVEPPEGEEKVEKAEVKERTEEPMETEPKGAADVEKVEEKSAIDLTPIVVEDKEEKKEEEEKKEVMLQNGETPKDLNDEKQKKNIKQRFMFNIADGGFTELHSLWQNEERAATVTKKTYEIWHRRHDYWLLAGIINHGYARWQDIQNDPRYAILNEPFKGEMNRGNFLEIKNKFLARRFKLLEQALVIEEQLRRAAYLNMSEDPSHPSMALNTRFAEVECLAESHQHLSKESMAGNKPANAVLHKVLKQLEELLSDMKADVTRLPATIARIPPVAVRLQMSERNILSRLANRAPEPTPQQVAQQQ

Sequence of SMARCA4 (P51532 whole entry): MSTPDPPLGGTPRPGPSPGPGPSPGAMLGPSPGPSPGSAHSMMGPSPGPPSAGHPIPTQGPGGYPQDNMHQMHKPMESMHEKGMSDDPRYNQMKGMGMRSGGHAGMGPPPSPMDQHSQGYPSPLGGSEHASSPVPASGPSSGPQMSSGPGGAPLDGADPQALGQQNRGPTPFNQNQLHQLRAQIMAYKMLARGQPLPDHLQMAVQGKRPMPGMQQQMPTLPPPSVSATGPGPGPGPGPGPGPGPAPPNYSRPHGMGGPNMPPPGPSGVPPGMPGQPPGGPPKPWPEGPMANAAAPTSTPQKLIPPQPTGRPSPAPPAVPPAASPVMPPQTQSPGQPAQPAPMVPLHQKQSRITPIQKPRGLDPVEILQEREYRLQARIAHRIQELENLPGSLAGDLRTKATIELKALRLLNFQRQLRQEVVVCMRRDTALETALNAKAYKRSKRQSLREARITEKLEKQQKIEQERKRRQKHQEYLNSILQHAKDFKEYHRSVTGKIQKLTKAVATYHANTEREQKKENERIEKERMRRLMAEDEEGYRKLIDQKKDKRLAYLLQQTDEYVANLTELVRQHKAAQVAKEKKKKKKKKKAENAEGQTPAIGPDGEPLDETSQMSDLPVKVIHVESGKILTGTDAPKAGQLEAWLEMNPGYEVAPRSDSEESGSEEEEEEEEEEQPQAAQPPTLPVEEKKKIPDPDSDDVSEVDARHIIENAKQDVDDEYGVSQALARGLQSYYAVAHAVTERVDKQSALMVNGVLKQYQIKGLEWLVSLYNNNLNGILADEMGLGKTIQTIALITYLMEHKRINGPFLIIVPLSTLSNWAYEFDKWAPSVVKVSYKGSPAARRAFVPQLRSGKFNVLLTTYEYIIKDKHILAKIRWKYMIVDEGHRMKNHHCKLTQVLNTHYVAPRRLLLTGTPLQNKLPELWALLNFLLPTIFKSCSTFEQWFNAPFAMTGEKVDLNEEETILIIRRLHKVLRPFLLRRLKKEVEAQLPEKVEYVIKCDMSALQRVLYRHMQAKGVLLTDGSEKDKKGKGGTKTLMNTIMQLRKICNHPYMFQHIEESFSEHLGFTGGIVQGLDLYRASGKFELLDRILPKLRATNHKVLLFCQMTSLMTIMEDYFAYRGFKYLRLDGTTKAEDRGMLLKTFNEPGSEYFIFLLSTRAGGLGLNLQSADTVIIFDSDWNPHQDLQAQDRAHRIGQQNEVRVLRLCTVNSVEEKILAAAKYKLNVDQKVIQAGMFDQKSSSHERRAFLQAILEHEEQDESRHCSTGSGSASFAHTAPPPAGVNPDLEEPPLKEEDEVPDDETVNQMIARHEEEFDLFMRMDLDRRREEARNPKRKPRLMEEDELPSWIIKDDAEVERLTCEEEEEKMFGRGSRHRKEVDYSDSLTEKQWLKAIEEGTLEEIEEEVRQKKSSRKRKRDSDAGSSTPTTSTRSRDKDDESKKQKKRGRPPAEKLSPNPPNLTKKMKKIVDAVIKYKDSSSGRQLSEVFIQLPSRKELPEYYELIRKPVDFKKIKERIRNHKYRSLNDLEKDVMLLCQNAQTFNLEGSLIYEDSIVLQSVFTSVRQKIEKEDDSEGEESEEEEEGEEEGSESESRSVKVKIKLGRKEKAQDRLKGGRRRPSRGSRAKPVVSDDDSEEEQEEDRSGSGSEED
Sequence of SMARCA2 (P51531 whole entry): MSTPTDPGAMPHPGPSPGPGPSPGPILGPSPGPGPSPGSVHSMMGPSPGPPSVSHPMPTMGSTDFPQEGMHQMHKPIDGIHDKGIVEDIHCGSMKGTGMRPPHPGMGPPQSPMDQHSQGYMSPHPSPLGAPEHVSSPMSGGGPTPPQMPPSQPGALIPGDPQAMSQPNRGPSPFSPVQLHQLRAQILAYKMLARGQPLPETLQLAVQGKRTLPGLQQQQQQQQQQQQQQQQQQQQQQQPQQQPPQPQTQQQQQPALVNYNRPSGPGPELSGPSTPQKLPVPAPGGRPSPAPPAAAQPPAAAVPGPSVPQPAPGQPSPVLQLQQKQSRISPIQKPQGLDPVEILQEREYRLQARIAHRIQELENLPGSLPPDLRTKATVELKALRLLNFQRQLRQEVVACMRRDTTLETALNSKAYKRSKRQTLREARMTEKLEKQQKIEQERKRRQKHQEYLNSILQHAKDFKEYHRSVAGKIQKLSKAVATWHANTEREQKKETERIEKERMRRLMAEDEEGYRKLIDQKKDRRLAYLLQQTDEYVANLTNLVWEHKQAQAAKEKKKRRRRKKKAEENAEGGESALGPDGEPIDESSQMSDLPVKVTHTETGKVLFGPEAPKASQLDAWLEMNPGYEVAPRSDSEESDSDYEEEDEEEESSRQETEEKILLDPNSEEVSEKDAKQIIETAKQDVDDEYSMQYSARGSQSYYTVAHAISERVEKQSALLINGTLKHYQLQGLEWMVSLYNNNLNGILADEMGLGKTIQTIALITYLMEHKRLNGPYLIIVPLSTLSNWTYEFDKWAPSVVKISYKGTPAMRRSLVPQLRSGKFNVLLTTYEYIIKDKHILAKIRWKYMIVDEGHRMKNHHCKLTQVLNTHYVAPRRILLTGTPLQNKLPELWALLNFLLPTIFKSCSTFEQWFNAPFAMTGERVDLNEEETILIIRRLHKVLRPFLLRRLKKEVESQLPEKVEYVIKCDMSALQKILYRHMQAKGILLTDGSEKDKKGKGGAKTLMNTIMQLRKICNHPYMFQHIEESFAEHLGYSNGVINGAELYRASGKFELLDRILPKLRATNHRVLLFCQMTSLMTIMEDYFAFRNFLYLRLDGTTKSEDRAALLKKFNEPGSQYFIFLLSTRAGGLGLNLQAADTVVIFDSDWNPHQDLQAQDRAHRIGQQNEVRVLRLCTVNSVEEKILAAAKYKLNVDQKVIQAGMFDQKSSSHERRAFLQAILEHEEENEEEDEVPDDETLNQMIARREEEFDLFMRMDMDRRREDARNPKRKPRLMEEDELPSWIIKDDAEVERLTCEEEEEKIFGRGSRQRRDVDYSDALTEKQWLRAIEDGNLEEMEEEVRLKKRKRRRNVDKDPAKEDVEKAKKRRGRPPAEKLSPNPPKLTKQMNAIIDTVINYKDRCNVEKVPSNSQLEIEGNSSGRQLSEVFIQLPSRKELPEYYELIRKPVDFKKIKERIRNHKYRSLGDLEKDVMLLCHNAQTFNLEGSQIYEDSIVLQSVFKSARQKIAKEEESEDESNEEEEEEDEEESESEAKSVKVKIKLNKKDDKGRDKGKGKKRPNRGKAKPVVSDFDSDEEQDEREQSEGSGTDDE

Broadly, the IC50 is the midpoint of a concentration-inhibition curve. As to `CN(C)S(=O)(=O)c1cccc(C(=O)NCC(=O)Nc2nc(-c3ccccc3)cs2)c1` [FHT-185], the IC50 in assay [1] was 6.04 ± 1.04 µM; in assay [2] it was 2500 ± 500 nM.
`COC[C@H](NC(=O)c1ccn(S(C)(=O)=O)c1)C(=O)Nc1nc(-c2cccc(-c3ccn(C)n3)c2)cs1` [FHT-2344]: the IC50 is 0.026 ± 0.006 µM in assay [1] (DNA-stimulated ATPase), 13 ± 3 nM in assay [2] and above 200 µM in assay [3].
